Activity calls are given as the source filed them. The calls are words filed in the database; no cut-off is given here.
Legend:
Leishmania donovani [1] = assay: Antileishmanial activity against Leishmania donovani MHOM/BR/74/PP75 promastigotes assessed as lysis of promastigotes at 100 ug/ml after 72 hrs; assay type: functional
Leishmania amazonensis [2] = assay: Antileishmanial activity against Leishmania amazonensis IFLA/BR/67/PH8 promastigotes assessed as lysis of promastigotes at 100 ug/ml after 72 hrs; assay type: functional
Leishmania braziliensis [3] = assay: Antileishmanial activity against Leishmania braziliensis MHOM/BR/75/M2903 promastigotes assessed as lysis of promastigotes at 100 ug/ml after 72 hrs; assay type: functional
Trypanosoma cruzi [4] = assay: Antitrypanosomal activity against Trypanosoma cruzi CL-B5 amastigotes infected in mouse NCTC-929 fibroblast after 7 days by colorimetric method; assay type: functional, organism-based; conditions: NCTC-929, 168 h
Trypanosoma cruzi [5] = assay: Trypanocidal activity against Trypanosoma cruzi CL-B5 clone epimastigotes expressing lacZ gene after 72 hrs at 28 degC; assay type: functional, organism-based
[6] = Cytotoxicity against BALB/c mouse peritoneal macrophages at 21.7 uM after 48 hrs by trypan blue exclusion method; assay type: cell-based; conditions: macrophage
Leishmania amazonensis [7] = assay: Leishmanicidal activity against Leishmania amazonensis amastigotes infected in BALB/c mouse assessed as suppression of lesion weight at 25 mg/kg/day, po administered 4 weeks after infection for 15 days measured after 1 week relative to control; assay type: functional
Leishmania amazonensis [8] = assay: Leishmanicidal activity against Leishmania amazonensis amastigotes infected in BALB/c mouse assessed as suppression of parasite load in lesions at 10 mg/kg/day, sc administered 4 weeks after infection for 15 days measured after 1 week relative to control; assay type: functional; conditions: route subcutaneous
J774 [9] = assay: Cytotoxicity against mouse J774 macrophages at 8.6 uM after 24 hrs by resazurin test; assay type: cell-based; conditions: j774, 24 h
Leishmania amazonensis [10] = assay: Leishmanicidal activity against Leishmania amazonensis amastigotes infected in BALB/c mouse assessed as suppression of lesion weight at 10 mg/kg/day, sc administered 4 weeks after infection for 15 days measured after 1 week relative to control; assay type: functional; conditions: route subcutaneous
J774 [11] = assay: Cytotoxicity against mouse J774 macrophages at 2.1 uM after 24 hrs by resazurin test; assay type: cell-based; conditions: j774, 24 h
Leishmania amazonensis [12] = assay: Leishmanicidal activity against Leishmania amazonensis amastigotes infected in BALB/c mouse assessed as suppression of parasite load in lesions at 10 mg/kg/day, po administered 4 weeks after infection for 15 days measured after 1 week relative to control; assay type: functional
[13] = Cytotoxicity against BALB/c mouse peritoneal macrophages at 2.1 uM after 48 hrs by trypan blue exclusion method; assay type: cell-based; conditions: macrophage
[14] = Cytotoxicity against BALB/c mouse peritoneal macrophages at 4.3 uM after 48 hrs by trypan blue exclusion method; assay type: cell-based; conditions: macrophage
Leishmania amazonensis [15] = assay: Leishmanicidal activity against Leishmania amazonensis amastigotes infected in BALB/c mouse assessed as suppression of lesion weight at 25 mg/kg/day, sc administered 4 weeks after infection for 15 days measured after 1 week relative to control; assay type: functional; conditions: route subcutaneous
Leishmania amazonensis [16] = assay: Antileishmanial activity against Leishmania amazonensis PH8 amastigotes infected in mouse peritoneal macrophages after 48 hrs; assay type: functional, organism-based; conditions: PH8, 48 h
Leishmania donovani [17] = assay: Leishmanicidal activity against Leishmania donovani MHOM/BR/74/PP75 promastigotes at >13.03 uM after 72 hrs; assay type: functional, organism-based
Leishmania amazonensis [18] = assay: Leishmanicidal activity against Leishmania amazonensis IFLA/BR/67/PH8 promastigotes at >13.03 uM after 72 hrs; assay type: functional, organism-based
Leishmania braziliensis [19] = assay: Leishmanicidal activity against Leishmania braziliensis MHOM/BR/75/M2903 promastigotes at >13.03 uM after 72 hrs; assay type: functional, organism-based
Leishmania braziliensis [20] = assay: Leishmanicidal activity against Leishmania braziliensis MHOM/BR/75/M2903 promastigotes after 72 hrs; assay type: functional, organism-based; conditions: MHOM/BR/75/M2903, 72 h
Leishmania amazonensis [21] = assay: Leishmanicidal activity against Leishmania amazonensis IFLA/BR/67/PH8 promastigotes after 72 hrs; assay type: functional, organism-based; conditions: IFLA/BR/67/PH8, 72 h
[22] = Cytotoxicity against mouse NCTC-929 fibroblast at 4.3 uM after 24 hrs by resazurin test; assay type: cell-based; conditions: nctc-929, 24 h
J774 [23] = assay: Cytotoxicity against mouse J774 macrophages at 4.3 uM after 24 hrs by resazurin test; assay type: cell-based; conditions: j774, 24 h
[24] = Cytotoxicity against mouse NCTC-929 fibroblast at 2.1 uM after 24 hrs by resazurin test; conditions: nctc-929, 24 h
[25] = Cytotoxicity against BALB/c mouse peritoneal macrophages at 8.6 uM after 48 hrs by trypan blue exclusion method; assay type: cell-based; conditions: macrophage
[26] = Cytotoxicity against mouse NCTC-929 fibroblast at 8.6 uM after 24 hrs by resazurin test; assay type: cell-based; conditions: nctc-929, 24 h
Leishmania amazonensis [27] = assay: Leishmanicidal activity against Leishmania amazonensis amastigotes infected in BALB/c mouse assessed as suppression of lesion weight at 10 mg/kg/day, po administered 4 weeks after infection for 15 days measured after 1 week relative to control; assay type: functional
Leishmania amazonensis [28] = assay: Leishmanicidal activity against Leishmania amazonensis amastigotes infected in BALB/c mouse assessed as suppression of parasite load in lesions at 25 mg/kg/day, sc administered 4 weeks after infection for 15 days measured after 1 week relative to control; assay type: functional; conditions: route subcutaneous
J774 [29] = assay: Cytotoxicity against mouse J774 macrophages at 21.7 uM after 24 hrs by resazurin test; assay type: cell-based; conditions: j774, 24 h
[30] = Cytotoxicity against mouse NCTC-929 fibroblast at 21.7 uM after 24 hrs by resazurin test; assay type: cell-based; conditions: nctc-929, 24 h
Leishmania amazonensis [31] = assay: Antileishmanial activity against Leishmania amazonensis PH8 amastigotes infected in mouse peritoneal macrophages at >4.34 uM; assay type: functional, organism-based
Leishmania donovani [32] = assay: Leishmanicidal activity against Leishmania donovani MHOM/BR/74/PP75 promastigotes after 72 hrs; assay type: functional, organism-based
Leishmania amazonensis [33] = assay: Leishmanicidal activity against Leishmania amazonensis amastigotes infected in BALB/c mouse assessed as suppression of parasite load in lesions at 25 mg/kg/day, po administered 4 weeks after infection for 15 days measured after 1 week relative to control; assay type: functional
Leishmania amazonensis [34] = assay: Leishmanicidal activity against Leishmania amazonensis amastigotes infected in BALB/c mouse assessed as suppression of lesion weight at 100 mg/kg/day, sc administered 4 weeks after infection for 15 days measured after 1 week relative to control; assay type: functional, organism-based
Leishmania amazonensis [35] = assay: Leishmanicidal activity against Leishmania amazonensis amastigotes infected in BALB/c mouse assessed as suppression of parasite load in lesions at 100 mg/kg/day, sc administered 4 weeks after infection for 15 days measured after 1 week relative to control; assay type: functional, organism-based

In the case of `Oc1ccc(/C=C/c2cc(O)cc(O)c2)cc1` [RESVERATROL], the Activity (Leishmania donovani [1]) is reported as <70%, the Activity (Leishmania amazonensis [2]) is reported as <70% and the Activity (Leishmania braziliensis [3]) is reported as 80%.

`O=C(Cn1ccnc1[N+](=O)[O-])NCc1ccccc1` [BENZNIDAZOLE] gave an IC50 (Trypanosoma cruzi [4]) of 192 µM and an IC50 (Trypanosoma cruzi [5]) of 54.7 µM.

In the case of `COc1ccc(CCc2cc(OC)ccc2OC)cc1`, the Activity (Leishmania amazonensis [2]) is reported as <70% and the Activity (Leishmania braziliensis [3]) is reported as <70%.

For `Oc1ccc(CCc2cccc(O)c2)cc1` [LUNULARIN], the Activity (Leishmania amazonensis [2]) was <70% and the Activity (Leishmania braziliensis [3]) was <70%.

With `Oc1ccc(CCc2cc(O)ccc2O)cc1` the Activity [6] was 1.4%, the Activity (Leishmania amazonensis [7]) was 80.9% and the Activity (Leishmania amazonensis [8]) was 93%. It also gave an Activity (J774 [9]) of 4.89%, an Activity (Leishmania amazonensis [10]) of 95.9% and an Activity (J774 [11]) of 0.76%. The Activity (Leishmania amazonensis [12]) was 68.6%, the Activity [13] was 0% and the Activity (Leishmania donovani [1]) was 100%. The Activity [14] was 0%, the Activity (Leishmania amazonensis [15]) was 98.3% and the IC50 (Leishmania amazonensis [16]) was 1.5 µM. For the same compound, the Activity (Leishmania donovani [17]) was “Active”, the Activity (Leishmania amazonensis [18]) was “Active” and the Activity (Leishmania braziliensis [19]) was “Active”. For the same compound, the IC50 (Trypanosoma cruzi [4]) was 17.3 µM, the IC50 (Leishmania braziliensis [20]) was 1.1 µM and the IC50 (Leishmania amazonensis [21]) was 1.1 µM. The Activity (Leishmania amazonensis [2]) was 100%, the Activity [22] was 0.66% and the Activity (J774 [23]) was 2.11%. The Activity [24] was 0%, the Activity [25] was 0% and the Activity [26] was 2.93%. The Activity (Leishmania amazonensis [27]) was 90%, the Activity (Leishmania amazonensis [28]) was 97% and the Activity (J774 [29]) was 18.88%. For the same compound, the Activity [30] was 7.91%, the IC50 (Trypanosoma cruzi [5]) was 5.8 µM and the Activity (Leishmania amazonensis [31]) was “Active”. It also gave an Activity (Leishmania braziliensis [3]) of 100%, an IC50 (Leishmania donovani [32]) of 0.5 µM and an Activity (Leishmania amazonensis [33]) of 93.1%.

Compound `N=C(N)c1ccc(OCCCCCOc2ccc(C(=N)N)cc2)cc1` [PENTAMIDINE] has an IC50 (Leishmania amazonensis [16]) of 0.9 µM, an IC50 (Leishmania braziliensis [20]) of 9.8 µM and an IC50 (Leishmania amazonensis [21]) of 9.8 µM. It also gave an IC50 (Leishmania donovani [32]) of 9.8 µM.

For MEGLUMINE ANTIMONATE, the Activity (Leishmania amazonensis [34]) was 72.1% and the Activity (Leishmania amazonensis [35]) was 98.2%.

Reference: ChEMBL document CHEMBL1154439, “Activity of a hydroxybibenzyl bryophyte constituent against Leishmania spp. and Trypanosoma cruzi: in silico, in vitro and in vivo activity studies” (Eur J Med Chem, 2008)
